Patent US20070015777A1, “Use of Inhibitors of the Ubiquitin Proteasome Pathway as a Method of Increasing Contractility of the Heart” (Myogen, Inc., priority 2005, published 2007)
Entries after “also recorded” stand apart in the source; their conditions may differ. Peptide text beside a SMILES is read from it. * marks the point of attachment. Cbz = O=C(OCc1ccccc1)*

Experiments:
MCIP1 protein = assay: Western blot analysis for MCIP1 protein in NRVM; assay type: cell-based, rat; conditions: range of MG132 concentrations, 48 hours (FIG. 6)
Protocol: (§1) NRVM culture. For preparations of neonatal rat ventricular myocytes (NRVMs), hearts were removed from 10-20 newborn (1-2 days old) Sprague-Dawley rats. Isolated ventricles were pooled, minced and dispersed by three 20-minute incubations at 37° C. in Ads buffer (116 mM NaCl, 20 mM HEPES, 10 mM NaH2PO4, 5.5 mM glucose, 5 mM KCl, 0.8 mM MgSO4, pH 7.4) containing collagenase Type 11 (65 units/ml, Worthington) and pancreatin (0.6 mg/ml, GibcoBRL). Dispersed cells were applied to a discontinuous gradient of 40.5% and 58.5% (v/v) Percoll (Amersham Biosciences), centrifuged, and myocytes collected from the interface layer. […]
(§2) Western Blots. […] Protein concentrations were determined by the bicinchoninic acid method (BCA Protein Assay, Pierce) with bovine serum albumin as a standard. Equivalent quantities of protein samples (10 μg/lane) were denatured in Laemmli buffer and resolved on Tris-glycine SDS-PAGE gels (4-20% acrylamide gradient, Invitrogen). […]

[1] = test system: modulatory calcineurin interacting protein 1 (MCIP1); assay: Cytoblot assay for MCIP1 protein content in NRVM; assay type: cell-based, rat
Protocol: as §1, with “layer. Myocyte preparations were pre-plated in Dulbecco's modified Eagle's medium (DMEM, Cellgro), supplemented with 10% (v/v) charcoal stripped fetal bovine serum (FBS, HyClone), 4 mM L-glutamine and 1% penicillin/streptomycin for 1 hour at 37° C. to reduce fibroblast contamination, then plated at a density of 2.5×10^5 cells per well on 6-well tissue culture plates (or 10,000 cells/well on 96-well tissue culture plates) coated with a 0.2% (w/v) gelatin solution.” for “layer.”
(§3) NRVM protein quantitation by cytoblot (alpha myosin, beta myosin, MCIP1). […] Plates were read in a 96-well luminometer (Packard Fusion).

[2] = test system: neonatal rat ventricular myocytes (NRVMs); conditions: NRVM cell culture model, Dreger 2002; cited from earlier work
[3] = test system: alpha myosin heavy chain protein; assay: Cytoblot assay for alpha myosin heavy chain protein content in NRVM; assay type: cell-based, rat; conditions: MG132 100 nM, 48 hours, cytoblot (FIG. 1)
Protocol: as §1, with “layer. Myocyte preparations were pre-plated in Dulbecco's modified Eagle's medium (DMEM, Cellgro), supplemented with 10% (v/v) charcoal stripped fetal bovine serum (FBS, HyClone), 4 mM L-glutamine and 1% penicillin/streptomycin for 1 hour at 37° C. to reduce fibroblast contamination, then plated at a density of 2.5×10^5 cells per well on 6-well tissue culture plates (or 10,000 cells/well on 96-well tissue culture plates) coated with a 0.2% (w/v) gelatin solution.” for “layer.”
as §3

[4] = test system: nuclear factor of activated T cells (NFAT); assay: Calcineurin-dependent nuclear import of GFP-NFAT in adenovirus-infected NRVM (immunofluorescence); assay type: cell-based, rat; conditions: NRVM infected with adenovirus encoding activated calcineurin and GFP-NFAT, MG132 1 μM (FIG. 7)
Protocol: (§4) NRVM culture. For preparations of neonatal rat ventricular myocytes (NRVMs), hearts were removed from 10-20 newborn (1-2 days old) Sprague-Dawley rats. Isolated ventricles were pooled, minced and dispersed by three 20-minute incubations at 37° C. in Ads buffer (116 mM NaCl, 20 mM HEPES, 10 mM NaH2PO4, 5.5 mM glucose, 5 mM KCl, 0.8 mM MgSO4, pH 7.4) containing collagenase Type 11 (65 units/ml, Worthington) and pancreatin (0.6 mg/ml, GibcoBRL). Dispersed cells were applied to a discontinuous gradient of 40.5% and 58.5% (v/v) Percoll (Amersham Biosciences), centrifuged, and myocytes collected from the interface layer. Myocyte preparations were pre-plated in Dulbecco's modified Eagle's medium (DMEM, Cellgro), supplemented with 10% (v/v) charcoal stripped fetal bovine serum (FBS, HyClone), 4 mM L-glutamine and 1% penicillin/streptomycin for 1 hour at 37° C. to reduce fibroblast contamination, then plated at a density of 2.5×10^5 cells per well on 6-well tissue culture plates (or 10,000 cells/well on 96-well tissue culture plates) coated with a 0.2% (w/v) gelatin solution. After 24 hours in culture, myocyte preparations were transferred to serum-free maintenance medium (DMEM supplemented with 0.1% (v/v) Nutridoma (Roche), L-glutamine and penicillin/streptomycin). Where indicated, NRVM were treated with test compounds for a period of 48 hrs. […]

[5] = test system: atrial natriuretic factor (ANF) secretion; assay: Competitive ANF ELISA on media supernatants of phenylephrine-treated NRVM; assay type: cell-based; conditions: Rattus norvegicus, 48 h, phenylephrine 20 μM, 48 hours (FIG. 4), read-out: EC50 for suppression of PE-induced ANF secretion
Protocol: as §1
(§5) ANF and toxicity assays. ANF in media supernatants was quantitated by competitive ELISA using a monoclonal anti-ANF antibody (Biodesign) and a biotinylated ANF peptide (Phoenix Peptide). Total cellular protein was quantitated by standard Coomassie dye-binding assay; cells were lysed in protein assay reagent (BioRad) and absorbance at A595 was measured after 1 hour. Cytotoxicity was quantitated by measuring release of adenylate kinase (AK) from cultured NRVM into culture medium (ToxiLight kit, Cambrex).

[6] = test system: β-myosin heavy chain protein; assay: Cytoblot assay for beta myosin heavy chain protein content in phenylephrine-treated NRVM; assay type: cell-based, rat; conditions: phenylephrine 20 μM, MG132 100 and 1000 nM, 48 hours, cytoblot (FIG. 2)
Protocol: as §4, with “solution.” for “solution. After 24 hours in culture, myocyte preparations were transferred to serum-free maintenance medium (DMEM supplemented with 0.1% (v/v) Nutridoma (Roche), L-glutamine and penicillin/streptomycin). Where indicated, NRVM were treated with test compounds for a period of 48 hrs.”
as §3

alpha myosin heavy chain = assay: Western blot analysis of NRVM: alpha myosin heavy chain; assay type: cell-based, rat; conditions: with or without phenylephrine 20 μM, MG132 370, 1500 and 3000 nM, 48 hours, Western blot (FIG. 3)
Protocol: as §1, §2

[7] = test system: total ubiquitinated protein; assay: Western blot analysis for total ubiquitinated protein in NRVM; assay type: cell-based, rat; conditions: range of MG132 concentrations, 48 hours (FIG. 6)
Protocol: as §1, §2

NRVM = assay: Cytotoxicity assay (adenylate kinase release, ToxiLight) in NRVM; assay type: cell-based, rat; conditions: 48 hours, at MG132 concentrations that suppress hypertrophy (FIG. 4)
Protocol: as §1, §5

SERCA = assay: Western blot analysis of NRVM: SERCA; assay type: cell-based, rat; conditions: with or without phenylephrine 20 μM, MG132 370, 1500 and 3000 nM, 48 hours, Western blot (FIG. 3)
Protocol: as §1, §2

phospholamban (PLB) = assay: Western blot analysis of NRVM: phospholamban; assay type: cell-based, rat; conditions: with or without phenylephrine 20 μM, MG132 370, 1500 and 3000 nM, 48 hours, Western blot (FIG. 3)
Protocol: as §1, §2

phospho-phospholamban = assay: Western blot analysis of NRVM: phospho-phospholamban; assay type: cell-based, rat; conditions: with or without phenylephrine 20 μM, MG132 370, 1500 and 3000 nM, 48 hours, Western blot (FIG. 3)
Protocol: as §1, §2

CC(C)C[C@@H](C=O)NC(=O)[C@H](CC(C)C)NC(=O)[C@H](CC(C)C)NC(=O)OCc1ccccc1 [MG132] (Cbz-Leu-Leu-Leu-aldehyde)
MCIP1 protein expression (Western blot) (MCIP1 protein): increases cardiac modulatory calcineurin interacting protein 1 (MCIP1) protein expression
EC50 ([1]; Rattus norvegicus, 48 hours, cytoblot (FIG. 5), read-out: EC50 for induction of cardiac MCIP1 expression): 10 nM
MCIP1 protein expression (cytoblot) ([1]; range of MG132 concentrations, 48 hours (FIG. 5)): dose-dependent increase in expression of modulatory calcineurin interacting protein 1 (MCIP1); also recorded: increases cardiac modulatory calcineurin interacting protein 1 (MCIP1) protein expression
anti-hypertrophic effect (β-MyHC levels, cell size and morphology, BNP, sarcomeric actin) [2]: anti-hypertrophic
alpha myosin heavy chain protein content [3]: significantly increased expression of alpha myosin heavy chain protein; also recorded: increases cardiac alpha myosin heavy chain protein expression
calcineurin-dependent nuclear import of GFP-NFAT [4]: blocked the ability of constitutively activated calcineurin to promote nuclear import of NFAT; also recorded: suppresses calcineurin-dependent nuclear import
EC50 [5]: ~20 nM
β-myosin heavy chain protein content [6]: effectively suppressed adrenergic agonist (phenylephrine) dependent upregulation of beta myosin heavy chain protein; also recorded: suppresses hypertrophic agonist-dependent increases in cardiac beta myosin heavy chain protein expression
expression of alpha myosin heavy chain (Western blot) (alpha myosin heavy chain): increases expression of SERCA, alpha myosin heavy chain
total ubiquitinated protein [7]: induced accumulation of ubiquitinated protein
cytotoxicity (release of adenylate kinase) (NRVM): no release of adenylate kinase (AK); also recorded: non-cytotoxic concentrations
expression of SERCA protein (SERCA): increased in vitro expression of cardiac SERCA protein; also recorded: increases expression of SERCA
expression of phospholamban (PLB) (phospholamban (PLB)): decreased expression of the SERCA inhibitory protein, phospholamban (PLB); also recorded: decreases expression of cardiac phospholamban
PLB phosphorylation (phospho-phospholamban) (phospho-phospholamban): dose-dependent increase in PLB phosphorylation; also recorded: increases expression of SERCA, alpha myosin heavy chain and phospho-phospholamban
